Target: Phospho-2-dehydro-3-deoxyheptonate aldolase (Escherichia coli, UniProt C3TIE2)
Test: Competitive inhibition of recombinant Escherichia coli DAH7P synthase using PEP as substrate by Michaelis-Menten equation analysis using UV-visible spectrophotometry

Chain of Phospho-2-dehydro-3-deoxyheptonate aldolase (C3TIE2 1-350): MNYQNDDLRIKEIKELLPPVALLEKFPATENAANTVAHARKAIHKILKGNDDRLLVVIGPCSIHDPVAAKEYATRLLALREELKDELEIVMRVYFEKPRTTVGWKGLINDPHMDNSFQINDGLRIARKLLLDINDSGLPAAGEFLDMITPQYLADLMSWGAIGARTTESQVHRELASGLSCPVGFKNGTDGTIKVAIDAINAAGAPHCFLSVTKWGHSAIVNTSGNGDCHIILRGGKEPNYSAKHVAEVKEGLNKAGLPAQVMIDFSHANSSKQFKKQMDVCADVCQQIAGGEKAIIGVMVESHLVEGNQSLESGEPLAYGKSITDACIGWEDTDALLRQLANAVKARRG

Ki: 154 µM
SMILES: O=C(O)C(=CCCCCOP(=O)(O)O)CP(=O)(O)O
